According to patent US6500849B1, “1-alkyl-, 1-alkenyl-, and 1-alkynylaryl-2-amino 1,3-propanediols and related compounds” (Aventis Pharmaceuticals Inc., priority 1990, dated 2002):

Legend:
Bact. fragilis = assay: Anerobic antibacterial assay (agar dilution, Wilkins-Chalgren agar); assay type: cell-based; conditions: anaerobic, 48 hours at 37° C.
Propionibact. acnes = assay: as above; assay type: cell-based; conditions: anaerobic, 48 hours at 37° C.
E. cloacae = assay: Aerobic antibacterial assay (agar dilution, Mueller-Hinton agar); conditions: aerobic, 24 hours at 37° C.
Bact. ovatus = assay: Anerobic antibacterial assay (agar dilution, Wilkins-Chalgren agar); assay type: cell-based; conditions: Bact. ovatus 103; anaerobic; 48 hours at 37° C.
[1] = tested on: female Swiss Webster mice; assay: Arachidonic acid-induced ear edema assay; assay type: in vivo; conditions: 1 mg/ear topical, arachidonic acid 4 mg/ear
Method: In the arachidonic acid-induced ear edema assay, the test compound was dissolved in 30/70 propylene glycol/ethanol and was applied to both ears of groups of 6 female Swiss Webster mice, which were housed together in a cage under standard conditions for 1 week prior to use with food and water ad lib, at a volume of 20 μl so that a total of 1.0 mg of test compound was delivered to each ear over the inner and outer surfaces. The same volume (20 μl) of vehicle was applied to each ear of a control group of mice. After 30 minutes, arachidonic acid was applied to the right ear of each mouse of each group in the amount of 4 mg/ear. Vehicle was applied to the left ear of each mouse of each group at a volume of 20 μl/ear. After an additional hour, the mice were sacrificed and a 4 mm plug was taken from each ear and weighed. The difference between the right and left ear plugs was determined for each animal. The antiinflammatory activity of the test compound is expressed as the mean percent change in the ear plug weight of the treated animals relative to the mean percent change in weights of control animals' ear. Antiinflammatory activity of representative compounds of the present invention as determined in this assay are presented below in Table 3.

Bact. vulgatus = assay: Anerobic antibacterial assay (agar dilution, Wilkins-Chalgren agar); assay type: cell-based; conditions: Bact. vulgatus 1446; anaerobic; 48 hours at 37° C.
E. coli = assay: Aerobic antibacterial assay (agar dilution, Mueller-Hinton agar); assay type: cell-based
[2] = tested on: female Swiss Webster mice; assay: TPA-induced ear edema assay; assay type: in vivo; conditions: 10 μg/ear topical, after about 5 hours
Method: In the TPA-induced ear edema assay, TPA (12-O-tetradecanoylphorbol-13-acetate) was dissolved in 30/70 propylene glycol/ethanol and was applied to the right ear of groups of 6 female Swiss Webster mice, which were housed together in a cage under standard conditions for 1 week prior to use with food and water ad lib, at a volume of 20 μl so that a total of 10 μg of TPA is delivered to the inner and outer surfaces of the ear. The test compound was dissolved in the vehicle and was applied to the right ear (the inner and outer surface) at a volume of 20 μl so that a total of 10 μg of the compound was delivered to the ear. After about 5 hours, the animals were sacrificed, a 4 mm diameter plug was taken from each ear and weighed. The difference between the right and left ear plug weights for each animal was determined. The antiinflammatory activity of the test compound is expressed as the mean percent change in the ear plug weight of the treated animals compared to the mean percent change in the plug weight of the control animals.

Strept. faecium = assay: Aerobic antibacterial assay (agar dilution, Mueller-Hinton agar); conditions: Strept. faecium D; aerobic; 24 hours at 37° C.
Staph. aureus = assay: as above; conditions: aerobic, 24 hours at 37° C.
Fusobact. varium = assay: Anerobic antibacterial assay (agar dilution, Wilkins-Chalgren agar); assay type: cell-based; conditions: anaerobic, 48 hours at 37° C.
Peptostr. anaerobius = assay: as above; assay type: cell-based; conditions: Peptostr. anaerobius 932; anaerobic; 48 hours at 37° C.
Clost. tetani = assay: as above; assay type: cell-based; conditions: Clost. tetani 19406; anaerobic; 48 hours at 37° C.
S. typhimurium = assay: Aerobic antibacterial assay (agar dilution, Mueller-Hinton agar); conditions: S. typhimurium; aerobic; 24 hours at 37° C.
Strept. pyogenes = assay: as above; conditions: aerobic, 24 hours at 37° C.
Clost. perfringens = assay: microbe, parasite or virus in culture; assay type: cell-based; conditions: Clost. perfringens 194; anaerobic; 48 hours at 37° C.
Protein kinase C = Protein kinase C assay (32P incorporation into Type III histone); assay type: biochemical, rat; conditions: rat brain protein kinase C; phosphatidylserine/diacylglycerol stimulated; read-out: Protein Kinase Inhibitory Activity IC50
Method: (see U. Kikkawa, et al., Biochemical and Biophysical Research Communications, 135, 636 (1986) and R. M. Bell, et al. “Methods in Enzymology, Hormone Action,” Part J, P.M. Conn, Ed., Academic Press, Inc., New York, N.Y. 1986, page 353). Protein kinase C enzyme extract was prepared from the brain of male Wistar rats weighing 180 to 200 g and purified by the method of U. Kikkawa, et al., ibid. 636. The purified extract was stored at −80° C., and aliquots were used in the protein kinase C assay performed by a modification of the method of R. M. Bell, et al., ibid. al 354. To perform the assay, duplicate aliquots of duplicate samples are employed. Basal or unstimulated protein kinase C, phosphatidylserine/diacylglycerol stimulated protein kinase C, and test samples are run in each assay. […] The assay tubes were allowed to warm to 25° C. and an 8 μl mixture of adenosine 5′-triphosphate (100 μM) and ^32P-adenosine triphosphate (1 to 2×10^5 counts per minute) was added to each tube for a final volume of 80 μl per tube. After 2 min, the reaction (the incorporation of phosphorous into Type III histone) was terminated by spotting the assay mixture on phosphocellulose paper. The spots are cut out of the paper and the radioactivity (counts per min) of each spot was determined in a scintillation counter.

Bact. thetaiotaom. = assay: Anerobic antibacterial assay (agar dilution, Wilkins-Chalgren agar); assay type: cell-based; conditions: anaerobic, 48 hours at 37° C.
Klebsiella spp. = assay: Aerobic antibacterial assay (agar dilution, Mueller-Hinton agar); conditions: aerobic, 24 hours at 37° C.
Bact. distasonis = assay: Anerobic antibacterial assay (agar dilution, Wilkins-Chalgren agar); assay type: cell-based; conditions: Bact. distasonis 1366; anaerobic; 48 hours at 37° C.

## CCCCCCCCCCCCC/C=C/[C@@H](O)[C@@H](N)CO [D-erythro-sphingosine, reference compound]
Bact. fragilis; Bact. fragilis 312
  Antibacterial activity (MIC, mg/l): 25.0 mg/L
Bact. fragilis; Bact. fragilis 960
  Antibacterial activity (MIC, mg/l): 12.5 mg/L
Bact. fragilis; Bact. fragilis 1313
  Antibacterial activity (MIC, mg/l): 25.0 mg/L
Bact. fragilis; Bact. fragilis 17390
  Antibacterial activity (MIC, mg/l): 25.0 mg/L
Bact. fragilis; Bact. fragilis 18125
  Antibacterial activity (MIC, mg/l): 25.0 mg/L
Bact. fragilis; Bact. fragilis 19016
  Antibacterial activity (MIC, mg/l): 25.0 mg/L
Propionibact. acnes; Propionibact. acnes 6919
  Antibacterial activity (MIC, mg/l): 12.5 mg/L
Propionibact. acnes; Propionibact. acnes 6922
  Antibacterial activity (MIC, mg/l): 12.5 mg/L
E. cloacae; E. cloacae 1321E
  Antibacterial activity (MIC, mg/l): 50.0 mg/L
E. cloacae; E. cloacae P99
  Antibacterial activity (MIC, mg/l): >100.0 mg/L
Bact. ovatus
  Antibacterial activity (MIC, mg/l): 12.5 mg/L
[1]
  Antiinflammatory Activity Percent Decrease in Ear Plug Weight at 1 mg/ear: +9%
Bact. vulgatus
  Antibacterial activity (MIC, mg/l): 25.0 mg/L
E. coli; E. coli 1507E, 24 hours at 37° C.
  Antibacterial activity (MIC, mg/l): >100.0 mg/L
E. coli; E. coli DC0, 24 hours at 37° C.
  Antibacterial activity (MIC, mg/l): >100.0 mg/L
E. coli; E. coli DC2, 24 hours at 37° C.
  Antibacterial activity (MIC, mg/l): 25.0 mg/L
E. coli; E. coli O 78, 24 hours at 37° C.
  Antibacterial activity (MIC, mg/l): >100.0 mg/L
E. coli; E. coli TEM, 24 hours at 37° C.
  Antibacterial activity (MIC, mg/l): >100.0 mg/L
[2]
  Antiinflammatory Activity Percent Decrease in Ear Plug Weight at 10 μg/ear: 46%
Strept. faecium
  Antibacterial activity (MIC, mg/l): 25.0 mg/L
Staph. aureus; Staph. aureus 285
  Antibacterial activity (MIC, mg/l): 25.0 mg/L
Staph. aureus; Staph. aureus 503
  Antibacterial activity (MIC, mg/l): 25.0 mg/L
Staph. aureus; Staph. aureus SG511
  Antibacterial activity (MIC, mg/l): 25.0 mg/L
Fusobact. varium; Fusobact. varium 3085
  Antibacterial activity (MIC, mg/l): 25.0 mg/L
Fusobact. varium; Fusobact. varium 5262
  Antibacterial activity (MIC, mg/l): 25.0 mg/L
Peptostr. anaerobius
  Antibacterial activity (MIC, mg/l): 12.5 mg/L
Clost. tetani
  Antibacterial activity (MIC, mg/l): 50.0 mg/L
S. typhimurium
  Antibacterial activity (MIC, mg/l): >100.0 mg/L
Strept. pyogenes; Strept. pyogenes 77 A
  Antibacterial activity (MIC, mg/l): 25.0 mg/L
Strept. pyogenes; Strept. pyogenes 308 A
  Antibacterial activity (MIC, mg/l): 12.5 mg/L
Clost. perfringens
  Antibacterial activity (MIC, mg/l): 6.25 mg/L
Protein kinase C
  IC50: 6.7 µM
Bact. thetaiotaom.; Bact. thetaiotaom. 123
  Antibacterial activity (MIC, mg/l): 25.0 mg/L
Bact. thetaiotaom.; Bact. thetaiotaom. 1428
  Antibacterial activity (MIC, mg/l): 25.0 mg/L
Bact. thetaiotaom.; Bact. thetaiotaom. 1445
  Antibacterial activity (MIC, mg/l): 25.0 mg/L
Klebsiella spp.; Klebsiella spp. 1082E
  Antibacterial activity (MIC, mg/l): 25.0 mg/L
Klebsiella spp.; Klebsiella spp. 1522E
  Antibacterial activity (MIC, mg/l): >100.0 mg/L
Bact. distasonis
  Antibacterial activity (MIC, mg/l): 12.5 mg/L
